Measured values from patent publication US20120065187A1 (ALCON RESEARCH, LTD, priority 2008, published 2012).
Counter-ions that a name gives are not always drawn.

Target: T1, human H4 (Homo sapiens, UniProt Q9H3N8)
T1 construct: host or cells: CHO-K1
Assay: In vitro histamine receptor cell-based assay (aequorin bioluminescence), H4 antagonism
Conditions: CHO-K1 cells expressing human H4, aequorin and Gα16; histamine at EC80; read-out: H4 Antagonist EC50
Description: The cell-based assays utilize an aequorin dependent bioluminescence signal. Doubly-transfected, stable CHO-K1 cell lines expressing human H1 or H4, mitochondrion-targeted aequorin, and (H4 only) human G protein Gα16 are obtained from Perkin-Elmer. Cells are maintained in F12 (Ham's) growth medium, containing 10% (vol./vol.) fetal bovine serum, penicillin (100 IU/mL), streptomycin (0.1 mg/mL), zeocin (0.25 mg/mL) and geneticin (0.40 mg/mL). Cell media components are from Invitrogen, Inc. One day prior to assay, the growth medium is replaced with the same, excluding zeocin and geneticin.
For assay preparation, growth medium is aspirated, and cells are rinsed with calcium-free, magnesium-free phosphate-buffered saline, followed by two to three minute incubation in Versene (Invitrogen, Inc.) at 37° C. Assay medium (DMEM:F12 [50:50], phenol-red free, containing 1 mg/mL protease-free bovine serum albumin) is added to collect the released cells, which are then centrifuged. The cell pellet is re-suspended in assay medium, centrifuged once more, and re-suspended in assay medium to a final density of 5×10^6 cells/mL. Coelenterazine-h dye (500 μM in ethanol) is added to a final concentration of 5 μM, and mixed immediately. The conical tube containing the cells is then wrapped with foil to protect the light-sensitive dye. The cells are incubated for four hours further at room temperature (approximately 21° C.) with end-over-end rotation to keep them in suspension.
Just before assay, the dye-loaded cells are diluted to 0.75×10^6 cells/mL (H1 receptor) or 1.5×10^6 cells/mL (H4 receptor) with additional assay medium. Cells are dispensed to 1536 well micro-titer plates at 3 μL/well. To assay receptor antagonism, 60 nl of 100× concentration test compounds in 100% dimethyl sulfoxide (DMSO) are dispensed to the wells, one compound per well, by passive pin transfer, and the plates are incubated for 15 minutes at room temperature. […] The pipette dispenses 3 μL/well of agonist (histamine, at twice the final concentration, where final concentration is a previously determined EC80) in assay medium, with concurrent bioluminescence detection. Agonist activity of test compounds is excluded by separate assays that measure response to test compounds immediately, without added histamine agonist.
CCD image capture on the Lumilux includes a 5 second baseline read prior to agonist addition, and generally a 40 second read per plate after agonist addition. A decrease in bioluminescence signal (measured either as area-under-the-curve, or maximum signal amplitude minus minimum signal amplitude) correlates with receptor antagonism in a dose dependent manner. The negative control is DMSO lacking any test compound. For antagonist assays, the positive controls are diphenhydramine (2-Diphenylmethoxy-N,N-dimethylethylamine, 10 μM final concentration, H1 receptor) or JNJ7777120 (1-[(5-Chloro-1H-indol-2-yl)carbonyl]-4-methyl-piperazine, 10 μM final concentration, H4 receptor). Efficacy is measured as a percentage of positive control activity.

Row | Compound | EC50 [µM]
1 | CN1CCN(c2nc3cc(Cl)c(F)cc3n3nnnc23)CC1 [Example 203, 7-chloro-8-fluoro-4-(4-methylpiperazin-1-yl)tetrazolo[1,5-a]quinoxaline] | < 10
2 | Cc1nc2c3cc(Cl)cc(F)c3nc(N3CCN(C)CC3)n2n1 [Example 246, 9-chloro-7-fluoro-2-methyl-5-(4-methylpiperazin-1-yl)-[1,2,4]triazolo[1,5-c]quinazoline] | < 10
3 | Fc1cc(Br)cc2c1nc(N1CCNCC1)c1nncn12 [Example 209, 8-bromo-6-fluoro-4-(piperazin-1-yl)-[1,2,4]triazolo[4,3-a]quinoxaline] | < 10
4 | Fc1cc2nc(N3CCNCC3)c3nnnn3c2cc1Br [Example 211, 8-bromo-7-fluoro-4-(piperazin-1-yl)tetrazolo[1,5-a]quinoxaline] | < 10
5 | CN1CCN(c2nc3c(F)cc(Br)cc3n3cnnc23)CC1 [Example 208, 8-bromo-6-fluoro-4-(4-methylpiperazin-1-yl)-[1,2,4]triazolo[4,3-a]quinoxaline] | < 10
6 | CCOC(=O)c1nc2c(N3CCN(C)CC3)nc3ccc(Cl)cc3n2n1 [Example 244, Ethyl 8-chloro-4-(4-methylpiperazin-1-yl)-[1,2,4]triazolo[1,5-a]quinoxaline-2-carboxylate] | > 10
7 | Clc1ccc2nc(N3CCN4CCCC4C3)c3nocc3c2c1 (stereo not shown) [Example 230, 8-chloro-4-(hexahydropyrrolo[1,2-a]pyrazin-2(1H)-yl)isoxazolo[3,4-c]quinoline] | < 10
8 | Cc1nc2c3cc(Br)cc(F)c3nc(N3CCN(C)CC3)n2n1 [Example 248, 9-bromo-7-fluoro-2-methyl-5-(4-methylpiperazin-1-yl)-[1,2,4]triazolo[1,5-c]quinazoline] | < 10
9 | CN1CCN(c2nc3c(F)cc(Br)cc3n3nnnc23)CC1 [Example 210, 8-bromo-6-fluoro-4-(4-methylpiperazin-1-yl)tetrazolo[1,5-a]quinoxaline] | < 10
10 | Cc1nc2c(N3CCN(C)CC3)nc3cc(F)c(C)cc3n2n1 [Example 239, 7-fluoro-2,8-dimethyl-4-(4-methylpiperazin-1-yl)-[1,2,4]triazolo[1,5-a]quinoxaline] | < 10
11 | Cc1nc2c(N3CCNCC3)nc3ccc(Br)cc3n2n1 [Example 242, 8-bromo-2-methyl-4-(piperazin-1-yl)-[1,2,4]triazolo[1,5-a]quinoxaline] | < 10
12 | Brc1ccc2nc(N3CCNCC3)c3nnnn3c2c1 [Example 205, 8-bromo-4-(piperazin-1-yOtetrazolo[1,5-a]quinoxaline] | < 10
13 | CN1CCN(c2nc3ccc(C(F)(F)F)c(F)c3n3nnnc23)CC1 [Example 171, 9-Fluoro-4-(4-methylpiperazin-1-yl)-8-(trifluoromethyl)tetrazolo[1,5-a]quinoxaline] | < 10
14 | Cc1nc2c(N3CCNCC3)nc3cc(F)c(C)cc3n2n1 [Example 240, 7-fluoro-2,8-dimethyl-4-(piperazin-1-yl)-[1,2,4]triazolo[1,5-a]quinoxaline] | < 10
15 | Clc1ccc2c(c1)nc(N1CCNCC1)c1nocc12 [Example 225, 7-chloro-4-(piperazin-1-yl)isoxazolo[3,4-c]quinoline] | < 10
16 | FC(F)(F)c1ccc2c(c1)nc(N1CCNCC1)c1nocc12 [Example 221, 4-(piperazin-1-yl)-7-(trifluoromethyl)isoxazolo[3,4-c]quinoline] | > 10
17 | Cc1nc2c(N3CCNCC3)nc3cc(F)c(Br)cc3n2n1 [Example 238, 8-bromo-7-fluoro-2-methyl-4-(piperazin-1-yl)-[1,2,4]triazolo[1,5-a]quinoxaline] | < 10
18 | Clc1ccc2nc(N3CCN4CCCC4C3)c3nnnn3c2c1 (stereo not shown) [Example 213, 8-chloro-4-(hexahydropyrrolo[1,2-a]pyrazin-2(1H)-yl)tetrazolo[1,5-a]quinoxaline] | < 10
19 | Fc1cc(C(F)(F)F)cc2c1nc(N1CCNCC1)c1nnnn12 [Example 206, 6-fluoro-4-(piperazin-1-yl)-8-(trifluoromethyl)tetrazolo[1,5-a]quinoxaline hydrochloride] | < 10
20 | Fc1cc2c(cc1Cl)nc(N1CCNCC1)c1nnnn12 [Example 202, 7-chloro-8-fluoro-4-(piperazin-1-yl)tetrazolo[1,5-a]quinoxaline] | < 10
21 | Cc1nc2c3cc(Cl)cc(F)c3nc(N3CCNCC3)n2n1 [Example 247, 9-chloro-7-fluoro-2-methyl-5-(piperazin-1-yl)-[1,2,4]triazolo[1,5-c]quinazoline] | < 10
22 | FC(F)(F)c1ccc2nc(N3CCNCC3)c3[nH]ncc3c2c1 [Example 231, 4-(piperazin-1-yl)-8-(trifluoromethyl)-3H-pyrazolo[3,4-c]quinoline] | < 10
23 | Fc1cc2nc(N3CCNCC3)c3nocc3c2cc1F [Example 227, 7,8-difluoro-4-(piperazin-1-yl)isoxazolo[3,4-c]quinoline] | < 10
24 | CN1CCN(c2nc3c(F)cc(C(F)(F)F)cc3n3nnnc23)CC1 [Example 207, 6-fluoro-4-(4-methylpiperazin-1-yl)-8-(trifluoromethyl)tetrazolo[1,5-a]quinoxaline hydrochloride] | < 10

Continued, values first:

Row | EC50 [µM] | Compound
25 | < 10 | Cc1nc2c(N3CCN(C)CC3)nc3cc(F)c(Br)cc3n2n1 [Example 237, 8-bromo-7-fluoro-2-methyl-4-(4-methylpiperazin-1-yl)-[1,2,4]triazolo[1,5-a]quinoxaline]
26 | < 10 | Cc1nc2c(N3CCN(C)CC3)nc3ccc(Br)cc3n2n1 [Example 241, 8-bromo-2-methyl-4-(4-methylpiperazin-1-yl)-[1,2,4]triazolo[1,5-a]quinoxaline]
27 | < 10 | CN1CCN(c2nc3cc(F)c(F)cc3c3conc23)CC1 [Example 226, 7,8-difluoro-4-(4-methylpiperazin-1-yl)isoxazolo[3,4-c]quinoline]
28 | < 10 | CN1CCN(c2nc3cc(Br)ccc3c3conc23)CC1 [Example 228, 7-bromo-4-(4-methylpiperazin-1-yl)isoxazolo[3,4-c]quinoline]
29 | < 10 | CN1CCN(c2nc3ccc(Br)cc3c3c[nH]nc23)CC1 [Example 232, 8-bromo-4-(4-methylpiperazin-1-yl)-2H-pyrazolo[3,4-c]quinoline]
30 | < 10 | CN1CCN(c2nc3ccc(Br)cc3c3cn(C)nc23)CC1 [Example 234, 8-bromo-2-methyl-4-(4-methylpiperazin-1-yl)-2H-pyrazolo[3,4-c]quinoline]
31 | < 10 | CN1CCN(c2nc3cc(Cl)ccc3c3conc23)CC1 [Example 224, 7-chloro-4-(4-methylpiperazin-1-yl)isoxazolo[3,4-c]quinoline]
32 | < 10 | CN1CCN(c2nc3cc(F)c(Br)cc3n3nnnc23)CC1 [Example 212, 8-bromo-7-fluoro-4-(4-methylpiperazin-1-yl)tetrazolo[1,5-a]quinoxaline]
33 | > 10 | Brc1ccc2c(c1)nc(N1CCNCC1)c1nocc12 [Example 229, 7-bromo-4-(piperazin-1-yl)isoxazolo[3,4-c]quinoline]
34 | < 10 | CN1CCN(c2nc3ccc(Cl)cc3n3ncnc23)CC1 [Example 243, 8-chloro-4-(4-methylpiperazin-1-yl)-[1,2,4]triazolo[1,5-a]quinoxaline]
35 | < 10 | Cn1cc2c(n1)c(N1CCNCC1)nc1ccc(Br)cc12 [Example 235, 8-bromo-2-methyl-4-(piperazin-1-yl)-2H-pyrazolo[3,4-c]quinoline]
36 | < 10 | CN1CCN(c2nc3ccc(Br)cc3n3nnnc23)CC1 [Example 204, 8-bromo-4-(4-methylpiperazin-1-yl)tetrazolo[1,5-a]quinoxaline]
37 | < 10 | Brc1ccc2nc(N3CCNCC3)c3n[nH]cc3c2c1 [Example 233, 8-bromo-4-(piperazin-1-yl)-2H-pyrazolo[3,4-c]quinoline]
